Where “and” joins values, the source holds several entries; their conditions need not be identical. Equal values may be shown once. Read-outs that look alike come from different tables or passages of the source.
Legend:
Sphaerotheca fuliginea = assay: In vivo preventive test on Sphaerotheca fuliginea (powdery mildew on cucurbits); details: 500 ppm; gherkin plants sprayed 24 hours before contamination; grading 12 days after contamination vs control plants
Description: Gherkin plants (“Vert petit de Paris” variety), sown in starter cups on a 50/50 peat soil-pozzolana substrate and grown at 24° C., are treated at the Z11 cotyledon stage by spraying with the active ingredient prepared as described above. Plants, used as controls, are treated with the mixture of acetone/tween/DMSO/water not containing the active material. After 24 hours, the plants are contaminated by spraying the cotyledons with an aqueous suspension of Sphaerotheca fuliginea spores (100 000 spores per ml). The spores are collected from infected plants. […] Grading (% of efficacy) is carried out 12 days after the contamination, in comparison with the control plants.

Botrytis cinerea = assay: In vivo preventive test on Botrytis cinerea (grey mould); details: 500 ppm; gherkin plants sprayed 24 hours before contamination; grading 4-5 days after contamination vs control plants
Description: Gherkin plants (“Vert petit de Paris” variety), sown in starter cups on a 50/50 peat soil-pozzolana substrate and grown at 24° C., are treated at the Z11 cotyledon stage by spraying with the active ingredient prepared as described above. Plants, used as controls, are treated with the mixture of acetone/tween/DMSO/water not containing the active material. After 24 hours, the plants are contaminated by spraying the cotyledons with an aqueous suspension of cryopreserved Botrytis cinerea spores (50 000 spores per ml). The spores are suspended in a nutrient solution composed of 10 g/L of PDB, 50 g/L of D-Fructose, 2 g/L of NH4NO3 and 1 g/L of KH2PO4. The contaminated gherkin plants are incubated at 17° C. and at 80% relative humidity. Grading (% of efficacy) is carried out 4-5 days after the contamination, in comparison with the control plants.

Septoria tritici = assay: In vivo preventive test on Septoria tritici (leaf spot on wheat); details: 500 ppm; wheat plants sprayed 24 hours before contamination; grading 21 to 28 days after contamination vs control plants
In short: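 Scipion wheat at 1-leaf stage sprayed with compound, controls receiving acetone/tween/DMSO/water vehicle; 24 h later leaves inoculated with Septoria tritici spores (500 000 spores per ml). Efficacy (%) graded versus control plants 21 to 28 days after contamination.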

[1] = format: physicochemical; details: for chromatographic logP: pH 2.7
[2] = method [a]: HPLC/LC-MS on reversed phase at pH 2.7, 0.1% formic acid in water / acetonitrile, gradient 10% to 95% acetonitrile
[3] = HPLC on reversed phase columns, method [a]: pH 2.7, 0.1% formic acid in water / acetonitrile, linear gradient 10% to 95% acetonitrile
[4] = method [a]: HPLC/LC-MS on reversed phase at pH 2.7, 0.1% formic acid in water / acetonitrile, linear gradient 10% to 95% acetonitrile

Row | Compound | % of efficacy (protection) (Sphaerotheca fuliginea) | % of efficacy (protection) (Botrytis cinerea) | % of efficacy (protection) (Septoria tritici) | log P [1, 2] | log P [1, 3] | chromatographic logP [1] | Log P ([1]; method [a]: HPLC/LC-MS on reversed phase at pH 2.7, 0.1% formic acid in water and acetonitrile, linear gradient 10% to 95% acetonitrile) | log P [1, 4] | log P ([1]; HPLC on reversed phase columns, method [a]: pH 2.7, 0.1% formic acid in water and acetonitrile, linear gradient 10% to 95% acetonitrile)
1 | CCOC(=O)CC(C)NC(=O)C1(C)CC(c2ccc3ncc(Br)cc3c2)=NO1 (mixture of isomers) [compound 505] | 98% | 75% | – | – | – | – | – | – | –
2 | CCOCCCNC(=O)C1(OC)CC(c2ccc3ncc(I)cc3c2)=NO1 (racemic) [compound 448] | 100% | 98% | 98% | 2.80[a] | – | – | – | – | –
3 | C#Cc1cnc2c(Cl)cc(C3=NOC(C)(C(=O)NCCCOCC)C3)cc2c1 (racemic) [compound 545] | 100% | 100% | 100% | – | 2.94[a] | – | – | – | –
4 | C#Cc1cnc2c(C)cc(C3=NOC(C)(C(=O)NCCCOCC)C3)cc2c1 (racemic) [compound 546] | 100% | 100% | 83% | – | 3.04[a] | – | – | – | –
5 | CCOCCCNC(=O)C1(C)CC(c2cc(C)c3ncc(Br)cc3c2)=NO1 (racemic) [compound 547] | 100% | 100% | – | – | 3.48[a] | – | – | – | –
6 | CC(C)NC(=O)C1(C)CC(c2ccc3ncc(I)cc3c2)=NO1 (stereo not drawn) [Compound No. 38, 3-(3-iodoquinolin-6-yl)-N-isopropyl-5-methyl-4,5-dihydro-1,2-oxazole-5-carboxamide] | 97% | 100% | 100% | – | – | 2.88 | – | – | –
7 | CC(C)NC(=O)C1(C)CC(c2ccc3ncc(Cl)cc3c2)=NO1 (stereo not drawn) [Compound No. 55] | 94% and 98% | 99% | 100% | – | – | 2.61 | – | – | –
8 | CCc1cnc2ccc(C3=NOC(C)(C(=O)NC(C)C)C3)cc2c1 (stereo not drawn) [Compound No. 259] | 94% | 75% | 100% | – | – | 1.94 | – | – | –
9 | CCn1cc(CNC(=O)C2(C)CC(c3cc4cc(Br)cnc4c(F)c3F)=NO2)c(C)n1 (stereo not drawn) [compound 17] | 85% | 100% | 100% | – | – | – | 2.69^[a] | – | –
10 | CCOCCCNC(=O)C1(C)CC(c2ccc3ncc(Br)cc3c2)=NO1 (stereo not drawn) [compound 32] | 100% | 98% | 79% and 97% | – | – | – | – | 2.69^[a] | –
11 | COc1cnc2ccc(C3=NOC(C)(C(=O)NC(C)C)C3)cc2c1 (stereo not drawn) [compound 53] | 88% | 99% | 97% | – | – | – | – | 2.08^[a] | –
12 | CCC1(C(=O)NC(C)C)CC(c2ccc3ncc(Br)cc3c2)=NO1 (stereo not drawn) [compound 66] | 98% | 100% | 100% | – | – | – | – | 3.13^[a] | –
13 | CCOCCCNC(=O)C1(CC)CC(c2ccc3ncc(Br)cc3c2)=NO1 (stereo not drawn) [compound 68] | 98% | 98% | 97% | – | – | – | – | 3.11^[a] | –
14 | CCn1cc(CNC(=O)C2(CF)CC(c3ccc4ncc(Br)cc4c3)=NO2)c(C)n1 (stereo not drawn) [compound 75] | 94% and 98% | 93% | – | – | – | – | – | 2.31^[a] | –
15 | C#Cc1cnc2ccc(C3=NOC(C)(C(=O)NCc4cccnc4)C3)cc2c1 (stereo not drawn) [compound 103] | 78% | 98% | 75% | – | – | – | – | 1.26^[a] | –
16 | C#Cc1cnc2ccc(C3=NOC(C)(C(=O)NC4CCC4)C3)cc2c1 (stereo not drawn) [compound 120] | 94% | 100% | 100% | – | – | – | – | 2.58^[a] | –
17 | C#Cc1cnc2ccc(C3=NOC(C)(C(=O)NCC4COC(C)(C)O4)C3)cc2c1 (stereo not drawn) [compound 125] | 98% | 100% | 100% | – | – | – | – | 2.35^[a] | –
18 | C#Cc1cnc2ccc(C3=NOC(C)(C(=O)NCC4CCCO4)C3)cc2c1 (stereo not drawn) [compound 132] | 94% | 98% | 100% | – | – | – | – | 2.17^[a] | –
19 | C#Cc1cnc2ccc(C3=NOC(C)(C(=O)NCc4cncn4C)C3)cc2c1 (stereo not drawn) [compound 155] | 89% | 100% | 100% | – | – | – | – | 1.91^[a] | –
20 | C#Cc1cnc2ccc(C3=NOC(C)(C(=O)NCc4cnn(Cc5ccccc5)c4)C3)cc2c1 (stereo not drawn) [compound 185] | 78% | 95% | 86% | – | – | – | – | 2.64^[a] | –
21 | C#Cc1cnc2ccc(C3=NOC(C)(C(=O)NC4CC4C4CC4)C3)cc2c1 (stereo not drawn) [compound 216] | 98% | 99% | 100% | – | – | – | – | 2.92^[a] | –
22 | CC(NC(=O)C1(C)CC(c2ccc3ncc(Br)cc3c2)=NO1)C1=NOCC1 (stereo not drawn) [compound 293] | 90% | 97% | 96% | – | 2.34[a] | – | – | – | –
23 | Cc1nc(C)c(C(C)NC(=O)C2(C)CC(c3ccc4ncc(Br)cc4c3)=NO2)s1 (stereo not drawn) [compound 296] | 100% | 97% | 100% | – | 2.46[a] | – | – | – | –
24 | C#Cc1cnc2ccc(C3=NOC(C)(C(=O)Nc4cnn(C)c4)C3)cc2c1 (stereo not drawn) [compound 462] | 98% | 98% | 100% | 1.98[a] | – | – | – | – | –
25 | C#Cc1cnc2ccc(C3=NOC(C)(C(=O)NOC(C)C4CC4)C3)cc2c1 (stereo not drawn) [compound 471] | 98% | 89% | 97% | 2.43[a] | – | – | – | – | –
26 | C#Cc1cnc2ccc(C3=NOC(OC)(C(=O)N(O)C(C)C)C3)cc2c1 (stereo not drawn) [compound 475] | 88% | 100% | 83% | 2.08[a] | – | – | – | – | –
27 | COC1(C(=O)NCC2COC(C)(C)O2)CC(c2ccc3ncc(I)cc3c2)=NO1 (stereo not drawn) [compound 483] | 100% | 100% | 100% | 2.73[a] | – | – | – | – | –
28 | COC1(C(=O)NCC2COC(C)(C)O2)CC(c2ccc3ncc(Br)cc3c2)=NO1 (stereo not drawn) [compound 496] | 100% | 99% | 100% | 2.62[a] | – | – | – | – | –
29 | C=CC1(C(=O)NC(C)C)CC(c2ccc3ncc(I)cc3c2)=NO1 (stereo not drawn) [compound 731] | 75% | – | 100% | – | – | – | – | – | 3.21[a]
